Measurements as given in patent US20080009418A1, “Selective Inhibitors” (Alchemia LTD., priority 2004, published 2008).

Tests used:
[1] = target: T1, Human neurokinin (NK1) (Homo sapiens, UniProt P25103); assay: Radioligand binding, human neurokinin NK1 membranes, filtration, [125I]-Substance P; settings: compound at 10 μM, [125I]-Substance P
T1 construct: purchased Perkin Elmer Biosignal
How it was run: (§1)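 Filtration binding on cloned human receptor membranes (1 Unit/well), [125I]-Substance P for NK1 and [3H]-Diprenorphine for KOP, 1 h at room temperature. Filters PEI-presoaked, washed with cold 50 mM Tris-HCl pH 7.4, counted by scintillation; percent inhibition calculated, reference ligand defining non-specific binding.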

[2] = target: T2, Human μ-opioid (MOP) (Homo sapiens, UniProt P35372); assay: Radioligand binding, human μ-opioid (MOP) membranes, FlashPlate, [3H]-Naloxone; settings: compound at 10 μM, [3H]-Naloxone
T2 construct: purchased Perkin Elmer Biosignal
T2 sequence (P35372 whole entry): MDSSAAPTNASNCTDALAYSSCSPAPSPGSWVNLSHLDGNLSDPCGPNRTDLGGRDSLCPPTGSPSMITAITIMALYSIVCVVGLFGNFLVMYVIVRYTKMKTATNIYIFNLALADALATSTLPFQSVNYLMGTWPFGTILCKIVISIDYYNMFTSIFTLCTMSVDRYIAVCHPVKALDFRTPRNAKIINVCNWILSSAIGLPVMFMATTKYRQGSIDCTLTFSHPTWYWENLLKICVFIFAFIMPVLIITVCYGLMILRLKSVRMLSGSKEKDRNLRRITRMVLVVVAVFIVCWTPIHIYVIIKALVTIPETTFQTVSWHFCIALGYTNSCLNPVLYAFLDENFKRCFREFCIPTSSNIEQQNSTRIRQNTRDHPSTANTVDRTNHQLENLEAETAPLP
How it was run: (§2)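 Cloned human receptor membranes were coated onto FlashPlate wells and incubated with radioligand and compound (added from a 0.5 mM DMSO daughter plate) for 1 hour at room temperature in the dark. Scintillation counting gave percent inhibition, with DMSO defining total and reference ligand defining non-specific binding.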

[3] = target: T3, Human opioid (ORL1) (Homo sapiens, UniProt P41146); assay: Radioligand binding, human opioid ORL1 membranes, FlashPlate, [125I]-Nociceptin; settings: compound at 10 μM, [125I]-Nociceptin
T3 construct: purchased Perkin Elmer Biosignal
T3 sequence (P41146 whole entry): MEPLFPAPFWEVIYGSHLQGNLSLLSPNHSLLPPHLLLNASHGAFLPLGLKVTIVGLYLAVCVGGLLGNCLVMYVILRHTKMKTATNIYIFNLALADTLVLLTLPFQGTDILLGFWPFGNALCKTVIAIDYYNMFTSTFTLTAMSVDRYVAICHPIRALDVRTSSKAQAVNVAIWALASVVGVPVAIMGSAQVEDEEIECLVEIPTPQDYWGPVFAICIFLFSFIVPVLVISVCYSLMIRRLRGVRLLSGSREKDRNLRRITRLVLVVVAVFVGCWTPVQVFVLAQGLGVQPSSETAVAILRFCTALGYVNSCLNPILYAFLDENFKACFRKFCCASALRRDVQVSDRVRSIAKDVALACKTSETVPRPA
How it was run: as §2

[4] = target: T4, Human melanocortin (MC5) (Homo sapiens, UniProt P33032); assay: Radioligand binding, human melanocortin MC5 membranes, FlashPlate, [125I]-NDP-αMSH; settings: compound at 10 μM, [125I]-NDP-αMSH
T4 construct: purchased Perkin Elmer Biosignal
T4 sequence (P33032 whole entry): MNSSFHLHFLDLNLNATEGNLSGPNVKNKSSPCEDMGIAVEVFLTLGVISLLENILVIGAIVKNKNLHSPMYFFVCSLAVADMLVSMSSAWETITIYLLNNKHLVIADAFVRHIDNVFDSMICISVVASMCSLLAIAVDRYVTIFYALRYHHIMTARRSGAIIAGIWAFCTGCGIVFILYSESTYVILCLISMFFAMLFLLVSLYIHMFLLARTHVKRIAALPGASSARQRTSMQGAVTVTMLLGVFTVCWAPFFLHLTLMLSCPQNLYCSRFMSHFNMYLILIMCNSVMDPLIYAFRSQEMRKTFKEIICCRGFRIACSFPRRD
How it was run: as §2

[5] = target: T5, Human κ-Opioid (KOP) (Homo sapiens, UniProt P41145); assay: Radioligand binding, human κ-opioid (KOP) membranes, filtration, [3H]-Diprenorphine; settings: compound at 10 μM, [3H]-Diprenorphine
T5 construct: purchased Perkin Elmer Biosignal
T5 sequence (P41145 whole entry): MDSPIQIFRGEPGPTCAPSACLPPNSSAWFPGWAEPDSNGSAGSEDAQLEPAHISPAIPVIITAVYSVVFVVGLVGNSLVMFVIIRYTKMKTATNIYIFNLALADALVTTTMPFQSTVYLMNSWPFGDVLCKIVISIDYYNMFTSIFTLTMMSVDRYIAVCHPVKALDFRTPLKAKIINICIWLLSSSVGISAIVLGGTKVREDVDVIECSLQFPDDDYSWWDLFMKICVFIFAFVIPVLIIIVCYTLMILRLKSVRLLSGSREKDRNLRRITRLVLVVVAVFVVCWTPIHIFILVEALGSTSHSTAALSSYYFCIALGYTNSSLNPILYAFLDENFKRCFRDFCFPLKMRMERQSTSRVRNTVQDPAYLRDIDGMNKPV
How it was run: as §1

[6] = target: T6, Human neuropeptide Y (NPY-Y1) (Homo sapiens, UniProt P25929); assay: Radioligand binding, human neuropeptide Y NPY-Y1 membranes, FlashPlate, [125I]-PYY; settings: compound at 10 μM, [125I]-PYY
T6 construct: purchased Perkin Elmer Biosignal
T6 sequence (P25929 1-384): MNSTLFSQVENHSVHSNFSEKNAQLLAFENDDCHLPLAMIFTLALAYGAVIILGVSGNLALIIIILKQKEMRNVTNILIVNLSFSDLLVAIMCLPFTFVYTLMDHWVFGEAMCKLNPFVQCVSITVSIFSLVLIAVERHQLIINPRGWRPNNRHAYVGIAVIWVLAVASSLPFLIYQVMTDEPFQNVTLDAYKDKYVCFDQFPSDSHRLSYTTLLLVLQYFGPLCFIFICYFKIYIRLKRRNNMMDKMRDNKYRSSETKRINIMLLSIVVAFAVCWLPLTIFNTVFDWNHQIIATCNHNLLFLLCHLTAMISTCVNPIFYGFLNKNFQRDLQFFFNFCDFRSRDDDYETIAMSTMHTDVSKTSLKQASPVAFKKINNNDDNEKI
How it was run: as §2

[7] = target: T7, Human Melanocortin (MC3) (Homo sapiens, UniProt P41968); assay: Radioligand binding, human melanocortin MC3 membranes, FlashPlate, [125I]-NDP-αMSH; settings: compound at 10 μM, [125I]-NDP-αMSH
T7 construct: purchased Perkin Elmer Biosignal
T7 sequence (P41968 whole entry): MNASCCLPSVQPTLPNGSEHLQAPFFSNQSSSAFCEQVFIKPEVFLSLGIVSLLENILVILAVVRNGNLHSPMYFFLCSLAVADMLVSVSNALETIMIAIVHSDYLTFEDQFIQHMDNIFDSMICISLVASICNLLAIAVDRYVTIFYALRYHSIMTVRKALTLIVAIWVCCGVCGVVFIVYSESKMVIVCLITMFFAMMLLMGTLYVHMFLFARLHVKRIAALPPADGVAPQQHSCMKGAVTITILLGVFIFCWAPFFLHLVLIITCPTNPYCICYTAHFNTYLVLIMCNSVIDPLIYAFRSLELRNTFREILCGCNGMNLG
How it was run: as §2

[8] = target: T8, Human δ-opioid (DOP) (Homo sapiens, UniProt P41143); assay: Radioligand binding, human δ-opioid (DOP) membranes, FlashPlate, [3H]-Bremazocine; settings: compound at 10 μM, [3H]-Bremazocine
T8 construct: purchased Perkin Elmer Biosignal
T8 sequence (P41143 whole entry): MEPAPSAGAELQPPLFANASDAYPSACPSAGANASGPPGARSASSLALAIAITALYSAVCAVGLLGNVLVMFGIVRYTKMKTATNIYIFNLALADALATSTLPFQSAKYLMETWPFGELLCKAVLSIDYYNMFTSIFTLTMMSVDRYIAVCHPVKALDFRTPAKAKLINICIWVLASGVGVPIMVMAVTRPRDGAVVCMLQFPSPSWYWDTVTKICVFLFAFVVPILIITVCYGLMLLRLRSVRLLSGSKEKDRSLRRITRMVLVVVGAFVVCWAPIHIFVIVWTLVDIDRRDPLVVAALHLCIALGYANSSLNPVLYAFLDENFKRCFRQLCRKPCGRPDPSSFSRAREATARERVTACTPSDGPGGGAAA
How it was run: as §2

[9] = target: T9, Human melanin-concentrating hormone (MCH1) (Homo sapiens, UniProt Q99705); assay: Radioligand binding, human melanin-concentrating hormone MCH1 membranes, FlashPlate, [125I]-S36057; settings: compound at 10 μM
T9 construct: purchased Perkin Elmer Biosignal
T9 sequence (Q99705 whole entry): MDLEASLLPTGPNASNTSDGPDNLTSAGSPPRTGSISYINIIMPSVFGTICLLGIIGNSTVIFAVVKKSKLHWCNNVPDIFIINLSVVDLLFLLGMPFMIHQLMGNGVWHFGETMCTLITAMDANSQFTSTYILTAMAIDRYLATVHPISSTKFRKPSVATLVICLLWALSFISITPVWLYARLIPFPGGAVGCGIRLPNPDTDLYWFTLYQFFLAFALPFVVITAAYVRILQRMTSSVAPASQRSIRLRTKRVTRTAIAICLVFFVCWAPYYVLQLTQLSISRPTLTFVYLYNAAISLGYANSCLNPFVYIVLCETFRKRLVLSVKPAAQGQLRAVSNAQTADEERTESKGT
How it was run: as §2

[10] = target: T10, Mouse urotensin (mUR2) (Mus musculus, UniProt Q8VIH9); assay: Radioligand binding, mouse urotensin mUR2 membranes, FlashPlate, [125I]-Urotensin II; settings: compound at 10 μM, [125I]-Urotensin II
T10 construct: purchased Perkin Elmer Biosignal
T10 sequence (Q8VIH9 1-385): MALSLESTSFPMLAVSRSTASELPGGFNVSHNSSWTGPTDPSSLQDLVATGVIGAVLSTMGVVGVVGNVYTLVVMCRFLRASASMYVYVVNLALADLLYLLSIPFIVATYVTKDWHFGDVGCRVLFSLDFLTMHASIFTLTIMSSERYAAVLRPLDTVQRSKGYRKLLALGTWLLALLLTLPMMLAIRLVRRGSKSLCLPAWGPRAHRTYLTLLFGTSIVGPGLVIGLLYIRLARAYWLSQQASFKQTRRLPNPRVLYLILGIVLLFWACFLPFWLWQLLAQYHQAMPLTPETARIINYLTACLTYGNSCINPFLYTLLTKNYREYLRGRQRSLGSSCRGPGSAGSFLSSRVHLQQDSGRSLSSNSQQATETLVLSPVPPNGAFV
How it was run: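 Cloned mouse urotensin (mUR2) receptor membranes from Perkin Elmer Biosignal were immobilized in FlashPlate microplates using a proprietary coating. Each well got 19.5 μl buffer, then 0.5 μl of DMSO, reference ligand, or compound. Adding 5 μl of [125I]-Urotensin II, diluted to 5× final concentration in binding buffer, started binding. Plates were sealed with TopSeal-A and incubated 1 hour at room temperature in the dark. Wells were counted for 30 seconds each on a TopCount after a 60-second delay, and percentage inhibition was calculated.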

[11] = target: T11, Human Melanocortin (MC4) (Homo sapiens, UniProt P32245); assay: Radioligand binding, human melanocortin MC4 membranes, FlashPlate, [125I]-NDP-αMSH; settings: compound at 10 μM, [125I]-NDP-αMSH
T11 construct: purchased Perkin Elmer Biosignal
T11 sequence (P32245 whole entry): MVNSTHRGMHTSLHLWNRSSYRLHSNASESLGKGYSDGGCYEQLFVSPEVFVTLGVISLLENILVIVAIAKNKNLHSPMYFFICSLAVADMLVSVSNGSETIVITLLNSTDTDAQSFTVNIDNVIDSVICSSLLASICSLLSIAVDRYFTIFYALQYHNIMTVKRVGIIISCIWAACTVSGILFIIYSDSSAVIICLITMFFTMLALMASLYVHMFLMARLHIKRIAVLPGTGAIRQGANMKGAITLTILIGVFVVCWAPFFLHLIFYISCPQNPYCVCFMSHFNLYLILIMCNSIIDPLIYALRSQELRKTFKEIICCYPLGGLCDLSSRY
How it was run: as §2

T1 sequence (P25103 whole entry): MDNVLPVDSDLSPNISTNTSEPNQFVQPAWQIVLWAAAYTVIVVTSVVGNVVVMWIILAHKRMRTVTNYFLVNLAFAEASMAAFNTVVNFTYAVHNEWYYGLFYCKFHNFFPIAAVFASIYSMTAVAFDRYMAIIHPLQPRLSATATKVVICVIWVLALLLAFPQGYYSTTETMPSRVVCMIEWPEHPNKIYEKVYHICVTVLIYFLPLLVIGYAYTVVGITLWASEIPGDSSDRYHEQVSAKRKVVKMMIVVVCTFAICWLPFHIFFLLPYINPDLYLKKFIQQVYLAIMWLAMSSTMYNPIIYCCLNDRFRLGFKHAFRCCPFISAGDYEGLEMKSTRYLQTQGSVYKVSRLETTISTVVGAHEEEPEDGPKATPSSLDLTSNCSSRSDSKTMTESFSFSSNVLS

SMILES | A8 radioligand binding, percentage inhibition [1] | A7 radioligand binding, percentage inhibition [2] | A10 radioligand binding, percentage inhibition [3] | A5 radioligand binding, percentage inhibition [4] | A2 radioligand binding, percentage inhibition [5] | A9 radioligand binding, percentage inhibition [6] | A3 radioligand binding, percentage inhibition [7] | A1 radioligand binding, percentage inhibition [8] | A6 radioligand binding, percentage inhibition ([9]; [125I]-S36057) | A11 radioligand binding, percentage inhibition [10] | A4 radioligand binding, percentage inhibition [11] | also measured
CO[C@H]1[C@H](O)[C@@H](COCc2ccc(Cl)cc2)OC(OCCc2ccccc2)[C@@H]1NC(=O)CNC(=N)N (stereo partly drawn) [compound 119] | + (“+” indicates greater than 50% inhibition at 10 μM) | − (“−” indicates less than 50% inhibition at 10 μM) | − (“−” indicates less than 50% inhibition at 10 μM) | − (“−” indicates less than 50% inhibition at 10 μM) | − (“−” indicates less than 50% inhibition at 10 μM) | − (“−” indicates less than 50% inhibition at 10 μM) | − (“−” indicates less than 50% inhibition at 10 μM) | − (“−” indicates less than 50% inhibition at 10 μM) | − (“−” indicates less than 50% inhibition at 10 μM) | − (“−” indicates less than 50% inhibition at 10 μM) | − (“−” indicates less than 50% inhibition at 10 μM) | 
COC[C@H]1OC(OCCc2ccccc2)[C@H](NC(=O)CCCN)[C@@H](OCc2cccc(O)c2)[C@@H]1O (stereo partly drawn) [compound 140] | + (“+” indicates greater than 50% inhibition at 10 μM) | − (“−” indicates less than 50% inhibition at 10 μM) | − (“−” indicates less than 50% inhibition at 10 μM) | − (“−” indicates less than 50% inhibition at 10 μM) | − (“−” indicates less than 50% inhibition at 10 μM) | − (“−” indicates less than 50% inhibition at 10 μM) | − (“−” indicates less than 50% inhibition at 10 μM) | − (“−” indicates less than 50% inhibition at 10 μM) | − (“−” indicates less than 50% inhibition at 10 μM) | − (“−” indicates less than 50% inhibition at 10 μM) | − (“−” indicates less than 50% inhibition at 10 μM) | 
COCC1OC(OCc2ccccc2)C(NC(=O)CN)C(OCc2ccc(-c3ccccc3)cc2)C1O (stereo not drawn) [compound 182] | + (“+” indicates greater than 50% inhibition at 10 μM) | − (“−” indicates less than 50% inhibition at 10 μM) | − (“−” indicates less than 50% inhibition at 10 μM) | − (“−” indicates less than 50% inhibition at 10 μM) | − (“−” indicates less than 50% inhibition at 10 μM) | − (“−” indicates less than 50% inhibition at 10 μM) | − (“−” indicates less than 50% inhibition at 10 μM) | − (“−” indicates less than 50% inhibition at 10 μM) | − (“−” indicates less than 50% inhibition at 10 μM) | − (“−” indicates less than 50% inhibition at 10 μM) | − (“−” indicates less than 50% inhibition at 10 μM) | 
N=C(N)NCCC(=O)NC1C(OCc2ccc(Cl)cc2)OC(COCc2ccccc2)C(O)C1OCc1ccc(Cl)cc1 (stereo not drawn) [compound 427] |  |  |  |  |  |  |  |  |  |  |  | A8: inhibition of radioligand binding ([1]; human NK1 membranes): + (“+” indicates greater than 50% inhibition at 10 μM); A7: inhibition of radioligand binding ([2]; human MOP membranes): − (“−” indicates less than 50% inhibition at 10 μM); A10: inhibition of radioligand binding ([3]; human ORL1 membranes): + (“+” indicates greater than 50% inhibition at 10 μM); A5: inhibition of radioligand binding ([4]; human MC5 membranes): + (“+” indicates greater than 50% inhibition at 10 μM); A2: inhibition of radioligand binding ([5]; human KOP membranes): − (“−” indicates less than 50% inhibition at 10 μM); A9: inhibition of radioligand binding ([6]; human NPY-Y1 membranes): − (“−” indicates less than 50% inhibition at 10 μM); A3: inhibition of radioligand binding ([7]; human MC3 membranes): + (“+” indicates greater than 50% inhibition at 10 μM); A1: inhibition of radioligand binding ([8]; human DOP membranes): − (“−” indicates less than 50% inhibition at 10 μM); A6: inhibition of radioligand binding ([9]; [125I]-S36057, human MCH1 membranes): + (“+” indicates greater than 50% inhibition at 10 μM); A11: inhibition of radioligand binding ([10]; mouse mUR2 membranes): − (“−” indicates less than 50% inhibition at 10 μM); A4: inhibition of radioligand binding ([11]; human MC4 membranes): + (“+” indicates greater than 50% inhibition at 10 μM)
COC[C@H]1OC(OCc2cccc(O)c2)[C@H](NC(=O)CNC(=N)N)[C@@H](OCc2ccc(-c3ccccc3)cc2)[C@@H]1O (stereo partly drawn) [compound 141] | − (“−” indicates less than 50% inhibition at 10 μM) | − (“−” indicates less than 50% inhibition at 10 μM) | − (“−” indicates less than 50% inhibition at 10 μM) | + (“+” indicates greater than 50% inhibition at 10 μM) | − (“−” indicates less than 50% inhibition at 10 μM) | − (“−” indicates less than 50% inhibition at 10 μM) | − (“−” indicates less than 50% inhibition at 10 μM) | − (“−” indicates less than 50% inhibition at 10 μM) | + (“+” indicates greater than 50% inhibition at 10 μM) | − (“−” indicates less than 50% inhibition at 10 μM) | − (“−” indicates less than 50% inhibition at 10 μM) | 
NCC1CCC(C(=O)NC2O[C@H](CO)[C@@H](O)[C@H](OCc3cccc4ccccc34)[C@H]2NC(=O)c2ccccc2)CC1 (stereo partly drawn) [compound 362] |  |  |  |  |  |  |  |  |  |  |  | A8: inhibition of radioligand binding, human neurokinin (NK1) [1]: + (“+” indicates greater than 50% inhibition at 10 μM); A7: inhibition of radioligand binding, human μ-opioid (MOP) [2]: − (“−” indicates less than 50% inhibition at 10 μM); A10: inhibition of radioligand binding, human opioid (ORL1) [3]: − (“−” indicates less than 50% inhibition at 10 μM); A5: inhibition of radioligand binding, human melanocortin (MC5) [4]: − (“−” indicates less than 50% inhibition at 10 μM); A2: inhibition of radioligand binding, human κ-opioid (KOP) [5]: − (“−” indicates less than 50% inhibition at 10 μM); A9: inhibition of radioligand binding, human neuropeptide Y (NPY-Y1) [6]: − (“−” indicates less than 50% inhibition at 10 μM); A3: inhibition of radioligand binding, human melanocortin (MC3) [7]: − (“−” indicates less than 50% inhibition at 10 μM); A1: inhibition of radioligand binding, human δ-opioid (DOP) [8]: − (“−” indicates less than 50% inhibition at 10 μM); A6: inhibition of radioligand binding, human melanin-concentrating hormone (MCH1) ([9]; [125I]-S36057): − (“−” indicates less than 50% inhibition at 10 μM); A11: inhibition of radioligand binding, mouse urotensin (mUR2) [10]: − (“−” indicates less than 50% inhibition at 10 μM); A4: inhibition of radioligand binding, human melanocortin (MC4) [11]: − (“−” indicates less than 50% inhibition at 10 μM)
